Results on four compounds are retold here after ChEMBL document CHEMBL1201862, “PubChem BioAssay data set” (2004).

Molecules are shown by their SMILES.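 Dose response: 5 concentrations. Exposure: 48 h. Format: 96-well plates. Endpoint: linear interpolation; highest concentration if not reached. Abbreviation: GI50, concentration required for 50% inhibition of growth.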 Calls of active or inactive are those of the source. Cut-off read from the data, not from the text of the source: active = GI50 up to about 1.1 µM and inactive = higher. Some results are limits rather than exact numbers.

What all share (experiment): DTP human tumour cell line panel, 48 h
The test system of assay [1] is OVCAR-3.
Assay [2] deals with OVCAR-5.
Assay [3] relates to IGROV-1.
Assay [4] concerns SK-MEL-5.
Assay [5] has as its system HCT-116.
The subject of assay [6] is UO-31.
Assay [7] relates to SR.
The test system of assay [8] is TK-10.
The subject of assay [9] is HCC 2998.
In assay [10] the test system is NCI/ADR-RES.
Assay [11] deals with RPMI-8226.
Assay [12] concerns HT-29.
In assay [13] the test system is CAKI-1.
Assay [14] relates to Malme-3M.
In assay [15] the test system is SK-OV-3.
Assay [16] deals with PC-3.
The subject of assay [17] is U-251.
The subject of assay [18] is BT-549.
In assay [19] the test system is T47D.

Consider `O=[N+]([O-])c1ccc(Cl)cc1-n1nc(-c2ccccc2)cc1-c1ccccc1`, for which the GI50 (in general, the concentration at which growth is held to half of that of the control) was > 100 µM (inactive) in [1]; > 100 µM (inactive) in assay [2]; > 100 µM (inactive) in assay [3]; > 100 µM (inactive) in assay [4]; 99.8 µM (inactive) in assay [5]; > 100 µM (inactive) in assay [6]. Moreover, the GI50 in assay [7] was > 100 µM (inactive); in assay [8] it was > 100 µM (inactive); in assay [9], > 100 µM (inactive); in assay [10] it was > 100 µM (inactive); in assay [11], > 100 µM (inactive); in assay [12], 97.3 µM (inactive). The GI50 in [13], in [14], in assay [15], in assay [16], in assay [17] and in [18] was > 100 µM (inactive) in each case. In assay [19], the GI50 was 22.3 µM (inactive).
Take `CSc1nc(SC)c2c(CN=[N+]=[N-])c(Br)n(Cc3ccccc3)c2n1`: the GI50 is > 100 µM (inactive) in assay [1]; > 100 µM (inactive) in assay [2]; > 100 µM (inactive) in assay [3]; > 100 µM (inactive) in assay [4]; 45.6 µM (inactive) in [5]; > 100 µM (inactive) in assay [6]. For the same compound, the GI50 in [7] is 26 µM (inactive); in assay [8], > 100 µM (inactive); in [9], > 100 µM (inactive); in [10], > 100 µM (inactive); in assay [11] it was > 100 µM (inactive); in assay [12] it was 23 µM (inactive). Besides, the GI50 was > 100 µM (inactive) in assay [13]; > 100 µM (inactive) in assay [14]; 24.1 µM (inactive) in assay [15]; > 100 µM (inactive) in assay [16]; 71.9 µM (inactive) in assay [17]; > 100 µM (inactive) in assay [18]. The GI50 in assay [19] is 11.7 µM (inactive).
On to `COC(=O)c1c(O)ccc2c1c1cc3ccccc3c(O)c1n2CCc1ccc(OC)c(OC)c1`, for which the GI50 in [1] is 68.2 µM (inactive); in assay [2], > 100 µM (inactive); in [3], 42.2 µM (inactive); in assay [4], 26.2 µM (inactive); in [5] it was 97.1 µM (inactive); in assay [6], 84.1 µM (inactive). Further, the GI50 in [7] is 38.4 µM (inactive); in [8], > 100 µM (inactive); in [9], 27.4 µM (inactive); in assay [10], 51.6 µM (inactive); in assay [11] it was 18.9 µM (inactive); in assay [12], 1.79 µM (inactive). Moreover, the GI50 in assay [13] is 68.7 µM (inactive); in assay [14] it was 59.4 µM (inactive); in assay [15], > 100 µM (inactive); in assay [16], 59.8 µM (inactive); in [17], > 100 µM (inactive); in assay [18] it was 16.7 µM (inactive). Moreover, in assay [19], the GI50 is 42.9 µM (inactive).
Consider `N/N=C(\N)SCCCCCCCCCCS/C(N)=N/N`, for which the GI50 in assay [1] was 19.7 µM (inactive); in [2], 45.4 µM (inactive); in assay [3], 18.7 µM (inactive); in assay [4], 21 µM (inactive); in assay [5], 26.8 µM (inactive); in assay [6] it was 15.1 µM (inactive). Moreover, the GI50 in assay [7] was 13.2 µM (inactive); in assay [8], 20.3 µM (inactive); in assay [9] it was 22.4 µM (inactive); in assay [10], 21.1 µM (inactive); in assay [11], 23.3 µM (inactive); in assay [12], 14.6 µM (inactive). Also, the GI50 in assay [13] is 36.1 µM (inactive); in assay [14], 12 µM (inactive); in [15], < 0.01 µM (active); in [16], 34.6 µM (inactive); in assay [17] it was 17.6 µM (inactive); in [18], 19.5 µM (inactive). Besides, the GI50 in [19] was 5.57 µM (inactive).
